Among the data in patent US20140221361A1, “C-19 MODIFIED TRITERPENOIDS WITH HIV MATURATION INHIBITORY ACTIVITY” (priority 2013, published 2014) are EC50 values, retold here.

One test concerns recombinant NL4-3 virus (Renilla luciferase in nef, Gag P373S). Nature of the test: HIV cell culture assay (luciferase reporter, MT-2 cells). Type of test: cell-based, HIV-1. Conditions: MT-2 cells infected for 4-5 days with NLRluc recombinants; luciferase activity; serial dilutions of inhibitor. The protocol: MT-2 cells and 293T cells were obtained from the NIH AIDS Research and Reference Reagent Program. MT-2 cells were propagated in RPMI 1640 media supplemented with 10% heat inactivated fetal bovine serum, […]. The 293T cells were propagated in DMEM media supplemented with 10% heat inactivated fetal bovine serum (FBS), 100 units/ml penicillin G and 100 µg/ml streptomycin. The proviral DNA clone of NL4-3 was obtained from the NIH AIDS Research and Reference Reagent Program. A recombinant NL4-3 virus, in which a section of the nef gene from NL4-3 was replaced with the Renilla luciferase gene, was used as a reference virus. In addition, residue Gag P373 was converted to P373S. Briefly, the recombinant virus was prepared by transfection of the altered proviral clone of NL4-3. Transfections were performed in 293T cells using LipofectAMINE PLUS from Invitrogen (Carlsbad, Calif.), according to manufacturer's instruction. The virus was titered in MT-2 cells using luciferase enzyme activity as a marker. Luciferase was quantitated using the Dual Luciferase kit from Promega (Madison, Wis.), with modifications to the manufacturer's protocol. The diluted Passive Lysis solution was pre-mixed with the re-suspended Luciferase Assay Reagent and the re-suspended Stop & Glo Substrate (2:1:1 ratio). Fifty (50) μL of the mixture was added to each aspirated well on assay plates and luciferase activity was measured immediately on a Wallac TriLux (Perkin-Elmer). Antiviral activities of inhibitors toward the recombinant virus were quantified by measuring luciferase activity in cells infected for 4-5 days with NLRluc recombinants in the presence serial dilutions of the inhibitor.
Background: A reporter such as luciferase makes a cellular process visible.
On to `CC(CO)[C@@H]1CC[C@]2(NCCN3CCS(=O)(=O)CC3)CC[C@]3(C)[C@H](CC[C@@H]4[C@@]5(C)CC=C(c6ccc(C(=O)O)c(F)c6)C(C)(C)[C@@H]5CC[C@]43C)[C@@H]12` (single isomer, unassigned) [Example A4], for which the half-maximal effective concentration (EC50) (in general, the concentration giving half of the maximal effect) came out at 2.34 nM.

For the compound `CC(O)(CO)[C@@H]1CC[C@]2(NCCN3CCS(=O)(=O)CC3)CC[C@]3(C)[C@H](CC[C@@H]4[C@@]5(C)CC=C(c6ccc(C(=O)O)cc6)C(C)(C)[C@@H]5CC[C@]43C)[C@@H]12` (single isomer, unassigned) [Example B9], the EC50 is 2.15 nM.

Regarding `CC(N)[C@@H]1CC[C@]2(NCCN3CCS(=O)(=O)CC3)CC[C@]3(C)[C@H](CC[C@@H]4[C@@]5(C)CC=C(c6ccc(C(=O)O)cc6)C(C)(C)[C@@H]5CC[C@]43C)[C@@H]12` (single isomer, unassigned) [Example B41], the EC50 turned out to be 40 nM.

The same test, now with this note: Renilla, NL43, MT-2 cells infected for 4-5 days with NLRluc recombinants; luciferase activity; serial dilutions of inhibitor.
Regarding `CC(N)[C@@H]1CC[C@]2(NCCN3CCS(=O)(=O)CC3)CC[C@]3(C)[C@H](CC[C@@H]4[C@@]5(C)CC=C(c6ccc(C(=O)O)cc6)C(C)(C)[C@@H]5CC[C@]43C)[C@@H]12` (single isomer, unassigned) [Example B19], the EC50 was 30 nM.

For the compound `C=C(CN(C)C)[C@@H]1CC[C@]2(C(=O)NCCN(C)C)CC[C@]3(C)[C@H](CC[C@@H]4[C@@]5(C)CC=C(c6ccc(C(=O)O)cc6)C(C)(C)[C@@H]5CC[C@]43C)[C@@H]12` [Example 7, 4-((1R,3aS,5aR,5bR,7aR,11aS,11bR,13aR,13bS)-3a-(2-(dimethylamino)ethylcarbamoyl)-1-(3-(dimethylamino)prop-1-en-2-yl)-5a,5b,8,8,11a-pentamethyl-2,3,3a,4,5,5a,5b,6,7,7a,8,11,11a,11b,12,13,13a,13b-octadecahydro-1H-cyclopenta[a]chrysen-9-yl)benzoic acid], the EC50 was 0.54 nM.

Turning to `CN(C)CCNC(=O)[C@]12CC[C@@H](NC(=O)OC(C)(C)C)[C@@H]1[C@H]1CC[C@@H]3[C@@]4(C)CC=C(C5=CCC(C(=O)O)CC5)C(C)(C)[C@@H]4CC[C@@]3(C)[C@]1(C)CC2` (stereo partly drawn) [Example A9, 4-((1R,3aR,5aR,5bR,7aR,11aS,11bR,13aR,13bR)-1-((tert-butoxycarbonyl)amino)-3a-((2-(dimethylamino)ethyl)carbamoyl)-5a,5b,8,8,11a-pentamethyl-2,3,3a,4,5,5a,5b,6,7,7a,8,11,11a,11b,12,13,13a,13b-octadecahydro-1H-cyclopenta[a]chrysen-9-yl)cyclohex-3-enecarboxylic acid], the EC50 is 1.15 nM.

On to `C/C=C1\CC[C@]2(NCCN3CCS(=O)(=O)CC3)CC[C@]3(C)[C@H](CC[C@@H]4[C@@]5(C)CC=C(c6ccc(C(=O)O)cc6)C(C)(C)[C@@H]5CC[C@]43C)[C@@H]12` [Example B13, 4-((3aS,5aR,5bR,7aR,11aS,11bR,13aR,13bS)-3a-((2-(1,1-dioxidothiomorpholino)ethyl)amino)-1-ethylidene-5a,5b,8,8,11a-pentamethyl-2,3,3a,4,5,5a,5b,6,7,7a,8,11,11a,11b,12,13,13a,13b-octadecahydro-1H-cyclopenta[a]chrysen-9-yl)benzoic acid], for which the EC50 was found to be 10 nM.

`CNC(C)[C@@H]1CC[C@]2(NCCN3CCS(=O)(=O)CC3)CC[C@]3(C)[C@H](CC[C@@H]4[C@@]5(C)CC=C(c6ccc(C(=O)O)cc6)C(C)(C)[C@@H]5CC[C@]43C)[C@@H]12` (stereo partly drawn) [Example B35, 4-((1R,3aS,5aR,5bR,7aR,11aS,11bR,13aR,13bS)-3a-((2-(1,1-dioxidothiomorpholino)ethyl)amino)-5a,5b,8,8,11a-pentamethyl-1-(1-(methylamino)ethyl)-2,3,3a,4,5,5a,5b,6,7,7a,8,11,11a,11b,12,13,13a,13b-octadecahydro-1H-cyclopenta[a]chrysen-9-yl)benzoic acid]: the EC50 was found to be 4.24 nM.

As to `CC1([C@@H]2CC[C@]3(NCCN4CCC(S(C)(=O)=O)CC4)CC[C@]4(C)[C@H](CC[C@@H]5[C@@]6(C)CC=C(c7ccc(C(=O)O)cc7)C(C)(C)[C@@H]6CC[C@]54C)[C@@H]23)CC1` [Example B53, 4-((1R,3aS,5aR,5bR,7aR,11aS,11bR,13aR,13bR)-5a,5b,8,8,11a-pentamethyl-1-(1-methylcyclopropyl)-3a-(2-(4-(methylsulfonyl)piperidin-1-yl)ethylamino)-2,3,3a,4,5,5a,5b,6,7,7a,8,11,11a,11b,12,13,13a,13b-octadecahydro-1H-cyclopenta[a]chrysen-9-yl)benzoic acid], the EC50 was found to be 1.03 nM.

For `CC(NC(=O)C(F)(F)F)[C@@H]1CC[C@]2(NCCN3CCS(=O)(=O)CC3)CC[C@]3(C)[C@H](CC[C@@H]4[C@@]5(C)CC=C(c6ccc(C(=O)O)cc6)C(C)(C)[C@@H]5CC[C@]43C)[C@@H]12` (stereo partly drawn) [Example B23, 4-((1R,3aS,5aR,5bR,7aR,11aS,11bR,13aR,13bS)-3a-((2-(1,1-dioxidothiomorpholino)ethyl)amino)-5a,5b,8,8,11a-pentamethyl-1-(1-(2,2,2-trifluoroacetamido)ethyl)-2,3,3a,4,5,5a,5b,6,7,7a,8,11,11a,11b,12,13,13a,13b-octadecahydro-1H-cyclopenta[a]chrysen-9-yl)benzoic acid], the EC50 was 1.16 nM.

For `C=C(CN(C)C(=O)CCC(=O)OC)[C@@H]1CC[C@]2(C(=O)NCCN(C)C)CC[C@]3(C)[C@H](CC[C@@H]4[C@@]5(C)CC=C(c6ccc(C(=O)O)cc6)C(C)(C)[C@@H]5CC[C@]43C)[C@@H]12` [Example 18, 4-((1R,3aS,5aR,5bR,7aR,11aS,11bR,13aR,13bS)-3a-(2-(dimethylamino)ethylcarbamoyl)-1-(3-(4-methoxy-N-methyl-4-oxobutanamido)prop-1-en-2-yl)-5a,5b,8,8,11a-pentamethyl-2,3,3a,4,5,5a,5b,6,7,7a,8,11,11a,11b,12,13,13a,13b-octadecahydro-1H-cyclopenta[a]chrysen-9-yl)benzoic acid], the EC50 is 1.87 nM.

Consider `COC(=O)N[C@@H]1CC[C@]2(NCCN3CCS(=O)(=O)CC3)CC[C@]3(C)[C@H](CC[C@@H]4[C@@]5(C)CC=C(c6ccc(C(=O)O)cc6)C(C)(C)[C@@H]5CC[C@]43C)[C@@H]12` [Example B26, 4-((1R,3aR,5aR,5bR,7aR,11aS,11bR,13aR,13bS)-3a-((2-(1,1-dioxidothiomorpholino)ethyl)amino)-1-((methoxycarbonyl)amino)-5a,5b,8,8,11a-pentamethyl-2,3,3a,4,5,5a,5b,6,7,7a,8,11,11a,11b,12,13,13a,13b-octadecahydro-1H-cyclopenta[a]chrysen-9-yl)benzoic acid], for which the EC50 stood at 2.85 nM.

With `CC(CN1CCS(=O)(=O)CC1)[C@@H]1CC[C@]2(NCCN3CCS(=O)(=O)CC3)CC[C@]3(C)[C@H](CC[C@@H]4[C@@]5(C)CC=C(c6ccc(C(=O)O)cc6)C(C)(C)[C@@H]5CC[C@]43C)[C@@H]12` (single isomer, unassigned) [Example B18], the EC50 came to 1.57 nM.

Consider `CC(=O)[C@@H]1CC[C@]2(NCCN3CCS(=O)(=O)CC3)CC[C@]3(C)[C@H](CC[C@@H]4[C@@]5(C)CC=C(c6ccc(C(=O)O)cc6)C(C)(C)[C@@H]5CC[C@]43C)[C@@H]12` [Example B47, 4-((1R,3aS,5aR,5bR,7aR,11aS,11bR,13aR,13bS)-1-acetyl-3a-((2-(1,1-dioxidothiomorpholino)ethyl)amino)-5a,5b,8,8,11a-pentamethyl-2,3,3a,4,5,5a,5b,6,7,7a,8,11,11a,11b,12,13,13a,13b-octadecahydro-1H-cyclopenta[a]chrysen-9-yl)benzoic acid], for which the EC50 worked out at 10 nM.

Take `C=C(CN(C)C(=O)CCC(=O)O)[C@@H]1CC[C@]2(C(=O)NCCC(=O)O)CC[C@]3(C)[C@H](CC[C@@H]4[C@@]5(C)CC=C(c6ccc(C(=O)O)cc6)C(C)(C)[C@@H]5CC[C@]43C)[C@@H]12` [Example 10, 4-((1R,3aS,5aR,5bR,7aR,11aS,11bR,13aR,13bS)-1-(3-(3-carboxy-N-methylpropanamido)prop-1-en-2-yl)-3a-(2-carboxyethylcarbamoyl)-5a,5b,8,8,11a-pentamethyl-2,3,3a,4,5,5a,5b,6,7,7a,8,11,11a,11b,12,13,13a,13b-octadecahydro-1H-cyclopenta[a]chrysen-9-yl)benzoic acid]: the EC50 turned out to be 2000 nM.

On to `CC(=O)NC(C)[C@@H]1CC[C@]2(NCCN3CCS(=O)(=O)CC3)CC[C@]3(C)[C@H](CC[C@@H]4[C@@]5(C)CC=C(c6ccc(C(=O)O)cc6)C(C)(C)[C@@H]5CC[C@]43C)[C@@H]12` (stereo partly drawn) [Example B21, 4-((1R,3aS,5aR,5bR,7aR,11aS,11bR,13aR,13bS)-1-(1-acetamidoethyl)-3a-((2-(1,1-dioxidothiomorpholino)ethyl)amino)-5a,5b,8,8,11a-pentamethyl-2,3,3a,4,5,5a,5b,6,7,7a,8,11,11a,11b,12,13,13a,13b-octadecahydro-1H-cyclopenta[a]chrysen-9-yl)benzoic acid], for which the EC50 is 8.18 nM.
